Results reported in US4594241A, “Anti-leishmanial pharmaceutical formulations” (Burroughs Wellcome Co., priority 1982, dated 1986).

Experiments:
Leishmania donovani [1] = experiment: Animal test: Balb/c mice infected with Leishmania donovani, intravenous treatment once daily for 5 days, liver parasite count; type: in vivo, Leishmania donovani in Balb/c mice; conditions: for ED50 (P95 limits): i.v. daily for 5 days, 10080 min
Source text: (§1) Inbred male mice, strain Balb/c (Bantin & Kingman), were infected with Leishmania donovani by intravenous inoculation of 10^7 amastigotes from the spleen of an infected hamster. One week after inoculation, the mice were divided into groups of 9-10 animals and dosed intravenously into the tail vein with sodium stibogluconate, either as free drug or entrapped in liposomes similar to those described in Example 1. The dose was given once daily for 5 days. Empty liposomes were inoculated into one group as controls. Seven days after the first dose of drug, the mice were killed, the livers excised and weighed, and impression smears prepared from a cut surface of the liver. The impression smears were stained with Giemsa, and number of amastigotes counted microscopically per 500 liver cell nuclei, and the total number of parasites calculated by the method of Stauber et al. J. Protozoology, 5, 269, (1958).
(§2) The doses of sodium stibogluconate were calculated in terms of mg antimony/kg for both free and entrapped drug. The liposome dilutions were freshly prepared for each day of drug treatment.
The results of treatment are expressed as the mean of the total numbers of amastigotes in the liver of each mouse.

Leishmania donovani [2] = experiment: Animal test: mice infected with Leishmania donovani, single intravenous injection (Experiment No. 82), liver parasite count; type: in vivo, Leishmania donovani in Balb/c mice
Source text: as §1, with “The dose was given once daily for 5 days.” left out
as §2
The results of treatment are expressed as the mean of the total numbers of amastigotes in the liver of each mouse. The following results were obtained:
Further animal tests on mice, as described in Example 2, were carried out using a liposomal formulation corresponding to that described as Preparation No. 8 in Example 2. […]

[3] = expt. 44, 15 mg Sb/kg × 5, i.v.
[4] = expt. 56, 0.5 mg Sb/kg × 5, i.v.
[5] = expt. 56, 1.0 mg Sb/kg × 5, i.v.
[6] = expt. 56, 2.0 mg Sb/kg × 5, i.v.
[7] = expt. 56, 4.0 mg Sb/kg × 5, i.v.

sodium stibogluconate
Potency relates to free drug (P95 limits) (Leishmania donovani [1]; Expt. 44): 1
ED50 (P95 limits) (Leishmania donovani [1]; Expt. 44): 2.4 (3.2-1.8) mg Sb/kg × 5
Potency relates to free drug (P95 limits) (Leishmania donovani [1]; Expt. 56): 1
ED50 (P95 limits) (Leishmania donovani [1]; Expt. 56): 1.14 (1.35-0.95) mg Sb/kg × 5
% inhibition (Leishmania donovani [1]; expt. 44, 5 mg Sb/kg × 5, i.v.): 72%
Mean no. of parasites/mouse liver ± SE (Leishmania donovani [1]; expt. 44, 5 mg Sb/kg × 5, i.v.): 1.54 ± 0.21 × 10^8
% inhibition (Leishmania donovani [1]; [3]): 93%
Mean no. of parasites/mouse liver ± SE (Leishmania donovani [1]; [3]): 0.38 ± 0.08 × 10^8
% inhibition (Leishmania donovani [1]; [4]): 23%
Mean no. of parasites/mouse liver ± SE (Leishmania donovani [1]; [4]): 3.80 ± 0.37 × 10^8
% inhibition (Leishmania donovani [1]; [5]): 26%
Mean no. of parasites/mouse liver ± SE (Leishmania donovani [1]; [5]): 3.65 ± 0.29 × 10^8
% inhibition (Leishmania donovani [1]; [6]): 69%
Mean no. of parasites/mouse liver ± SE (Leishmania donovani [1]; [6]): 1.55 ± 0.36 × 10^8
% inhibition (Leishmania donovani [1]; [7]): 93%
Mean no. of parasites/mouse liver ± SE (Leishmania donovani [1]; [7]): 0.35 ± 0.11 × 10^8
ED50 (dosage rate necessary to reduce the parasite count to 50% of the untreated group) (Leishmania donovani [2]): 61.2 mg antimony per kilogram body weight
